Where two headings read alike, the source gives them in different places.
Key:
[1] = Lapatinib pharmacokinetics and uptake in rat cerebrospinal fluid (CSF); type: in vivo, rats; conditions: for MRT last: read-out: MRT0-t
Description: This study was conducted on rats, which are a promising model to predict P-gp-based drug-drug interactions at the human BBB [15]. The animals were allowed to acclimate for one week before the beginning of the experiments. Adult male Wistar-strain rats (weight 470–525 g) were used in the study. The animals were maintained under standard breeding conditions with a 12/12 h light-dark cycle (lights on at 6.00 a.m., lights off at 6.00 p.m.) at constant room temperature (23 ± 2 °C), relative humidity (55 ± 10%) and ad libitum access to food and water. The experimental protocol for this study was reviewed and approved by the Local Ethics Committee. To obtain consistent data, the study was based on the required minimum number of animals and observation time. […] Three rats were used at each time point (n = 3). In total, the research was conducted on 66 animals (n = 33 in the experimental group and n = 33 in the control group).
Elacridar was freshly dissolved in a vehicle at an initial concentration of 20 mg/mL. […] A volume of 80 μL of blood was collected from each rat by cutting off a piece of its tail. The blood samples were collected into heparinized test tubes at the following time points: before treatment (time 0), 5 min, 30, min, and 1, 2, 3, 4, 6, 8, 12, and 24 h after administration of the drugs, and they were immediately centrifuged at 2880 g for 10 min at 4 °C. The anaesthetized rats (anaesthetized by intramuscular administration of 50 mg/kg ketamine and 10 mg/kg xylazine) were prepared for cisterna magna puncture. The hair over the puncture was removed and the skin was disinfected with alcohol. The animals were placed in a recumbent position with an elevated rear part of the body. The animals’ heads were slightly flexed and immobilized with the operator’s left hand. The space between the occiput rostrally and the atlas (C1) of the spinal column caudally was gently palpated with the left thumb. A 0.7 × 20 G needle with polyethylene tubing (Terumo Poland, Warsaw, Poland) was gently inserted at an approximate angle of 80–90° through the skin with the operator’s right hand into the midsagittal region. The moment that dura mater perforation was perceptible, a small amount of CSF was found in the needle tubing. To sample additional CSF, a 1 mL insulin syringe (Becton Dickinson, Warsaw, Poland) was used to collect 80–120 μL of CSF by very gentle aspiration. Only clear CSF was collected for further analysis. […] The animals’ brains were immediately dissected, washed in 0.9% NaCl and divided along the longitudinal axis. One of the brain hemispheres was again rinsed three times with 5 mL of 0.9% NaCl, weighed and homogenized with 0.9% NaCl (4 mL per 1 g of BT) in an Ultra-Turrax homogenizer (Witko, Łódź, Poland). The homogenate was then centrifuged at 4500 g for 10 min. All samples of the rat BP, CSF, and BT homogenate supernatant were stored at −80 °C until analysis.
The chromatographic analysis was conducted using a 1260 Infinity system (Agilent Technologies, Santa Clara, USA) equipped with a Kinetex® C18 column (50 × 4.6 mm, 2.6 μm, Phenomenex, Torrance, USA), which was maintained at 35 °C. The mobile phase consisted of 0.1% formic acid (v/v) in water with 5 mM ammonium formate (solvent A) and acetonitrile with 10% phase A (v/v, solvent B). The analyte and internal standard (IS, erlotinib) were eluted using a gradient run of 10 min as follows: 95% A at 0–2 min; 95%–5% A at 2–4 min; 5% A at 4–5 min; 5%–95% A at 5–6 min; 95% A at 6–10 min. The flow rate and injection volume were set at 0.7 mL/min and 10 μL, respectively. The needle was washed for 30 s in a mixture of acetonitrile, methanol, isopropanol, water, and formic acid (50:20:15:15:0.25, v/v/v/v/v).

[2] = parameters: method as in PMID 19056914; conditions: cited from earlier work
[3] = cited from earlier work
[4] = cerebrospinal fluid, lapatinib 100 mg/kg oral + 5 mg/kg elacridar (IE+L)
[5] = cerebrospinal fluid, lapatinib 100 mg/kg oral alone (IIL)
[6] = male, Wistar, rat, cerebrospinal fluid (CSF), po, 100 mg/kg, lapatinib p.o. 100 mg/kg alone, read-out: Clapatinib in CSF, S (medium value)
[7] = male, Wistar, rat, cerebrospinal fluid (CSF), po, 100 mg/kg, lapatinib p.o. 100 mg/kg alone, read-out: Clapatinib in CSF, single rat
[8] = male, Wistar, rat, cerebrospinal fluid, oral, lapatinib 100 mg/kg + elacridar, read-out: Clapatinib in CSF, S
[9] = male, Wistar, rat, cerebrospinal fluid, oral, lapatinib 100 mg/kg + elacridar, read-out: Clapatinib in CSF, single rat
[10] = male, Wistar, rat, cerebrospinal fluid, po, 100 mg/kg, cerebrospinal fluid, lapatinib 100 mg/kg oral + 5 mg/kg elacridar (IE+L)
[11] = male, Wistar, rat, cerebrospinal fluid, po, 100 mg/kg, lapatinib 100 mg/kg oral alone (IIL)

CS(=O)(=O)CCNCc1ccc(-c2ccc3ncnc(Nc4ccc(OCc5cccc(F)c5)c(Cl)c4)c3c2)o1 [lapatinib, N-{3-Chloro-4-[(3-fluorobenzyl)oxy]phenyl}-6-[5-({[2-(methylsulfonyl)ethyl]amino}methyl)-2-furyl]-4-quinazolinamine]
AUC0-∞ increase by elacridar ([1]; CSF): 1.5 fold
Cmax increase in IE+L vs control ([1]; CSF): 2.4 fold
Kp decrease in IL+E group vs control ([1]; CSF): 42.9%
t0.5 longer in the presence of elacridar ([1]; CSF): 2.6 times
AUC0-t elevated in IE+L ([1]; CSF, IE+L vs IIL group): 61.2%
Cmax increase with elacridar ([1]; CSF, IE+L vs IIL group): 136.4%
AUMC0-t [1, 4]: 1620.02 ng × h^2/mL
AUMC0-∞ [1, 4]: 2725.51 ng × h^2/mL
AUMC0-t [1, 5]: 1257.21 ng × h^2/mL
AUMC0-∞ [1, 5]: 1767.90 ng × h^2/mL
Kp ([1]; male, Wistar, rat, CSF / plasma, oral, 100 mg/kg, IIL group, read-out: Cmax,CSF/Cmax,BP ratio): 0.012
Kp ([1]; male, Wistar, rat, CSF / plasma, oral, with elacridar 5 mg/kg intraperitoneally, 30 min before lapatinib, IE+L group, read-out: Cmax,CSF/Cmax,BP ratio): 0.026
concentration at 0.25 h ([1]; male, Wistar, rat, cerebrospinal fluid (CSF), po, 100 mg/kg, lapatinib p.o. 100 mg/kg alone, 0.25 h, read-out: Clapatinib in CSF, S (medium value)): 3.73 ng/mL
concentration at 1 h [1, 6]: 38.5 ng/mL
concentration at 1 h [1, 7]: 38.5 ng/mL
concentration at 2 h [1, 6]: 10.8 ng/mL
concentration at 2 h [1, 7]: 10.8 ng/mL
concentration at 3 h [1, 6]: 12.2 ng/mL
concentration at 3 h [1, 7]: 9.49 ng/mL
concentration at 4 h [1, 6]: 13.8 ng/mL
concentration at 4 h [1, 7]: 13.8 ng/mL
concentration at 6 h [1, 6]: 26.9 ng/mL
concentration at 6 h [1, 7]: 26.9 ng/mL
concentration at 8 h [1, 6]: 24.4 ng/mL
concentration at 8 h [1, 7]: 24.4 ng/mL
concentration at 12 h [1, 6]: 7.23 ng/mL
concentration at 0.5 h ([1]; male, Wistar, rat, cerebrospinal fluid, oral, lapatinib 100 mg/kg + elacridar, 0.5 h, read-out: Clapatinib in CSF, S): 40.7 ng/mL
concentration at 1 h [1, 8]: 30 ng/mL
concentration at 2 h [1, 8]: 75.7 ng/mL
concentration at 3 h [1, 8]: 51.2 ng/mL
concentration at 3 h [1, 9]: 45.6 ng/mL
concentration at 4 h [1, 8]: 91 ng/mL
concentration at 4 h [1, 9]: 91 ng/mL
concentration at 6 h [1, 8]: 4.27 ng/mL
concentration at 6 h [1, 9]: 4.27 ng/mL
concentration at 8 h [1, 8]: 1.03 ng/mL
concentration at 8 h [1, 9]: 1.03 ng/mL
concentration at 12 h [1, 8]: 2.62 ng/mL
concentration at 12 h [1, 9]: 2.62 ng/mL
concentration at 24 h [1, 8]: 2.84 ng/mL
concentration at 24 h [1, 9]: 2.84 ng/mL
k el ([1]; male, Wistar, rat, cerebrospinal fluid, po, 100 mg/kg): 6.39e-05 s⁻¹
AUC(0-inf) [1, 10]: 387 ng·h/mL
AUC(0-t) [1, 10]: 356 ng·h/mL
Cmax [1, 10]: 91 ng/mL
Tmax [1, 10]: 4 h
MRT last [1, 10]: 4.55 h
MRT last ([1]; male, Wistar, rat, cerebrospinal fluid, po, 100 mg/kg, cerebrospinal fluid, lapatinib 100 mg/kg oral alone (IIL)): 5.7 h
AUC(0-inf) [1, 11]: 252 ng·h/mL
AUC(0-t) [1, 11]: 221 ng·h/mL
Cmax [1, 11]: 38.5 ng/mL
Tmax [1, 11]: 1 h
Kp ([1]; male, Wistar, rat, cerebrospinal fluid, po, 100 mg/kg, read-out: Kp (tissue-to-plasma partition coefficient, AUC0-∞-tissue/AUC0-∞-plasma)): 0.007
Kp,BT ([2]; WT mice, 24-h intravenous administration): 0.04
Kp,BT times greater than in WT mice ([2]; mdr1a/b(−/−)/bcrp(−/−) mice): 40 times
binds with plasma proteins [3]: 99%

Reference: article PMC7211195 (Investigational New Drugs, 2019)
